Results as given in publication PMC6102213, “Repurposing Thioridazine (TDZ) as an anti-inflammatory agent” (Scientific Reports, 2018).
pIC50: −log10 of the molar value.

Biological target: T1, IKKβ (Homo sapiens, UniProt O14920)
T1 construct: gene IKBKB
T1 sequence (O14920 1-756): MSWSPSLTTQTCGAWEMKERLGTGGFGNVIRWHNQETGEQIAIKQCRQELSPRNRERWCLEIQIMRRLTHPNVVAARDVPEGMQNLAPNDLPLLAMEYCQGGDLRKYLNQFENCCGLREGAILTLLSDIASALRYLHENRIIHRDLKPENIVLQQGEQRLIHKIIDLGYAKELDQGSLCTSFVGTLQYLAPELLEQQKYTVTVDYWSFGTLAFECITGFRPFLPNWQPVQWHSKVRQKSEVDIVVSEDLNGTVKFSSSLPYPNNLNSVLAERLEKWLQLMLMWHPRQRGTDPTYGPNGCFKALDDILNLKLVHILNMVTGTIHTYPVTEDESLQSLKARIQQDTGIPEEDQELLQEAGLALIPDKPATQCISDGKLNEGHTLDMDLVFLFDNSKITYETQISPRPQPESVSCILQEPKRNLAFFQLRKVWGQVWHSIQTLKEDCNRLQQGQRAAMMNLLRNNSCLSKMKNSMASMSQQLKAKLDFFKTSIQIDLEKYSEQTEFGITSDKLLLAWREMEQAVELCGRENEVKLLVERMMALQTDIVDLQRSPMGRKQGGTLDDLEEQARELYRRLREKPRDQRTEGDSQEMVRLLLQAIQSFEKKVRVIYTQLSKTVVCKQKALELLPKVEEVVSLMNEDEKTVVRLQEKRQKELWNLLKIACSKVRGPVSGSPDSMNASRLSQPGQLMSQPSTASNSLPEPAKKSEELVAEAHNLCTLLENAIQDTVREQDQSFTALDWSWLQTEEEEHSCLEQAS
Assay: ADP-Glo IKKβ kinase assay (Promega), […] ng IKKβ, IKKtide, […] ATP
Assay type: biochemical

CSc1ccc2c(c1)N(CCC1CCCCN1C)c1ccccc1S2 (stereo not shown) [TDZ, Thioridazine]
pIC50: 8.44
